# Columns and labels:
# PRR5 and TOC1 = PRR5 and TOC1 fusion protein accumulation by Western blotting; assay type: in vivo, Arabidopsis
# Procedure: Four‐day‐old seedlings grown under 12‐hr light/12‐hr dark (LD) conditions were transferred into a 96‐well plate with a dropper. Seedlings were treated with 20 µl of MS liquid containing 2% sucrose and AMI‐331 at 2, 10, or 50 µM with a final concentration of 5% (v/v) DMSO. As a control experiment, MS containing 2% sucrose and 5% DMSO was used to treat the seedlings. Seedlings were kept under constant light (L) or constant dark (D) for 24 hr, harvested, and kept frozen until proteins were extracted. Frozen samples were crushed with zirconia beads (Tomy ZB‐50) in a Tissue Lyser II (Qiagen). Detection of PRR5‐ and TOC1‐fusion proteins was performed using a 10%–20% gradient acrylamide gel (198‐15041, Wako) as previously described (Nakamichi et al., 2012). Anti‐FLAG antibody (F3165, Sigma) and anti‐VP antibody (ab4808, Abcam) were used to detect FLAG‐fusion and VP‐fusion proteins, respectively.
# It had previously been shown that CKL4 phosphorylates PSEUDO‐RESPONSE REGULATOR 5 (PRR5), a clock‐associated transcription factor in vitro, and that treatment with the CK1 inhibitor PHA767491 results in over‐accumulation of PRR5 in vivo (Uehara et al., 2019). As a further test of whether the period‐lengthening activity of AMI‐331 is related to the inhibition of CK1 in vivo, we measured the amounts of PRR5 in plants treated with AMI‐331. Seedlings expressing fusion protein PRR5‐FLAG under control of the cauliflower mosaic virus 35S promoter (35Spro:PRR5‐FLAG) were grown under constant light conditions for 4 days, treated with AMI‐331, and kept constantly in the dark for one day. In control experiments (i.e., without AMI‐331), PRR5‐FLAG protein amounts were lower under dark compared to light conditions, due to ZTL‐dependent degradation, as described in previously (Fujiwara et al., 2008; Kiba, Henriques, Sakakibara, & Chua, 2007). […] Since PHA767491 treatment also attenuates degradation of TIMING OF CAB EXPRESSION 1 (TOC1, also called as PRR1) under dark conditions (Uehara et al., 2019), we tested whether AMI‐331 affects TOC1 protein accumulation in vivo. TOC1 amounts were higher in AMI‐331‐treated plants (Figures 3c, S2).
# [1] = tested on: ATSK (GSK3) family proteins; experiment: AMI‐329 bead binding with AMI‐331 competitor, ATSK family; parameters: species or system Arabidopsis thaliana; conditions: 50 µM AMI‐331 as competitor
# Procedure: (§1) Screening for proteins bound to AMI‐329 beads was done by a method similar to what has previously been described (Uehara et al., 2019). Briefly, two‐week‐old seedlings grown under LD conditions were harvested at time points ZT2, ZT6, ZT9, and ZT17, and stored at −80°C. Proteins from the frozen plant samples were incubated with 0, 5, or 50 µM of AMI‐331 at 4°C for 30 min with rotary mixing. Two technical replicates were used for each experiment. PBS‐washed AMI‐329 beads were added to the protein samples and gently rotated at 4°C for 1 hr. AMI‐329 bead resins were washed with bead buffer (Uehara et al., 2019) six times. The washed resins were suspended in SDS sample buffer and boiled for 8 min. Protein samples were in‐gel‐digested as previously described (Uehara et al., 2019). Peptides were analyzed with a Q Exactive hybrid quadrupole‐orbitrap mass spectrometer (Thermo Fisher Scientific), as described previously (Uehara et al., 2019). MS/MS spectra were interpreted, and peak lists were generated using Proteome Discoverer 2.0.0.802 (Thermo Fisher Scientific). Searches were performed using SEQUEST (Thermo Fisher Scientific) against the Arabidopsis thaliana (TAIR TaxID = 3,702) peptide sequence database. […]
# (§2) To examine other potential targets of AMI‐331, we analyzed the spectra for PHA767491 target proteins (Uehara et al., 2019). […]
# Unknown AT5G42765 = experiment: AMI‐329 bead binding with AMI‐331 competitor, unknown protein AT5G42765; parameters: species or system Arabidopsis thaliana
# Procedure: as §1, with “2019).” for “2019). MS/MS spectra were interpreted, and peak lists were generated using Proteome Discoverer 2.0.0.802 (Thermo Fisher Scientific). Searches were performed using SEQUEST (Thermo Fisher Scientific) against the Arabidopsis thaliana (TAIR TaxID = 3,702) peptide sequence database.”
# However, another possible mechanism for the strong AMI‐331 biological activity in vivo is that it targets proteins other than the CK1 family for period lengthening. […] It is noteworthy that kinase AT4G08800 is very similar to the CKL family, but the ATP‐binding pocket of mammalian CK1 as determined by its crystal structure (Shinohara et al., 2017) was absent from AT4G08800, as shown in an Araport 11 model (https://www.araport.org). […]
# CPK family = experiment: AMI‐329 bead binding with AMI‐331 competitor, CPK family; parameters: species or system Arabidopsis thaliana
# Procedure: as §1, §2
compound,measurement,setting,value
C#CCn1c2c(c(Br)c1-c1ccncc1)C(=O)NCC2.Cl [AMI‐331],PRR5‐FLAG protein amount,"PRR5 and TOC1; 35Spro:PRR5‐FLAG seedlings, dark conditions",over‐accumulation of PRR5‐FLAG
same,PRR5‐VP protein amount,"PRR5 and TOC1; 35Spro:PRR5‐VP seedlings, dose‐dependent",accumulation of PRR5‐VP
same,TOC1 protein amount,PRR5 and TOC1; 35Spro:TOC1‐VP seedlings,higher
same,"Effective concentration for increasing PRR5 and TOC1, times lower than required for PHA767491",PRR5 and TOC1; in vivo,10–50 times
same,Effective concentrations for PRR5 or TOC1 accumulation,"PRR5 and TOC1; seedlings, 24 hr in the dark",10 to 50 µM
same,Spectra on AMI‐329 beads relative to 0 µM sample,[1],0%–13%
same,Spectra (PSMs) AMI‐329 beads bound,Unknown AT5G42765; competitor AMI‐331 5 µM,0 PSMs
same,Spectra (PSMs) AMI‐329 beads bound,Unknown AT5G42765; competitor AMI‐331 50 µM,0 PSMs
same,Target status from enrichment in 0 µM versus 5 or 50 µM samples,CPK family,not a target

# — PMC6747015, “Structure–function study of a novel inhibitor of the casein kinase 1 family in Arabidopsis thaliana” (Plant Direct, 2019)
